We go through 38 molecules from ChEMBL document CHEMBL1129219, “Use of CoMFA in validating the conformation used in designing 4-(1H-benzimidazole-2-carbonyl)piperidines with H1/NK1 receptor antagonist activity” (Bioorg Med Chem Lett, 1997).

What is called IC50 is the midpoint of a concentration-inhibition curve.

The target of this assay is Histamine H1 receptor (Homo sapiens, UniProt P35367). As to the kind of experiment: Antagonistic activity against histamine H1 receptor. Type of assay: functional.
Histamine H1 receptor, sequence (P35367 whole entry): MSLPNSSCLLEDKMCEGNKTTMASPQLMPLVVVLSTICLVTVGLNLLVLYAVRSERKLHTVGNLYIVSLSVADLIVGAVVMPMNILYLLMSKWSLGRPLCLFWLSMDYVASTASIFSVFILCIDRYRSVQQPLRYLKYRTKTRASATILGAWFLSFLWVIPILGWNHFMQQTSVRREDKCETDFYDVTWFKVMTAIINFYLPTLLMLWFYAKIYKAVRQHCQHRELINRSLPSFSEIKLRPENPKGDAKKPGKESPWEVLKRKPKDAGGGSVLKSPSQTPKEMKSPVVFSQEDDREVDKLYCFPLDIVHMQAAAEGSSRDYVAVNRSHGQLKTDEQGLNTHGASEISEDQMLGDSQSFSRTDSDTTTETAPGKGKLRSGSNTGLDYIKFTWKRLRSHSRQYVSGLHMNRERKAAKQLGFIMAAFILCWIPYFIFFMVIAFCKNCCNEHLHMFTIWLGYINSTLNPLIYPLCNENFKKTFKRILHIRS
For `COc1cc(C(=O)N2CCC(CCN3CCC(C(=O)c4nc5ccccc5n4Cc4ccccn4)CC3)(c3ccccc3)C2)cc(OC)c1OC` (stereo not drawn), the IC50 is 363 nM. The same measure for `CCOC(=O)CCCn1c(C(=O)C2CCN(CCC3(c4ccc(Cl)c(Cl)c4)CCN(C(=O)c4cc(OC)c(OC)c(OC)c4)C3)CC2)nc2ccccc21` (stereo not drawn): 955 nM.

Molecule `COc1cc(C(=O)N2CCC(CCN3CCC(C(=O)c4nc5ccccc5n4Cc4ccc(F)cc4)CC3)(c3ccc(C(F)(F)F)cc3)C2)cc(OC)c1OC` (stereo not drawn) showed an IC50 of 468 nM. The value for `COC(=O)c1ccccc1OCCCn1c(C(=O)C2CCN(CCC3(c4ccccc4)CCN(C(=O)c4cc(OC)c(OC)c(OC)c4)C3)CC2)nc2ccccc21` (stereo not drawn) was 1000 nM; that for `CCOCCn1c(C(=O)C2CCN(CCC3(c4ccccc4)CCN(C(=O)c4cc(OC)c(OC)c(OC)c4)C3)CC2)nc2ccccc21` (stereo not drawn) was 380 nM; that for `COc1ccc(C2(CCN3CCC(C(=O)c4nc5ccccc5n4Cc4ccc(F)cc4)CC3)CCN(C(=O)c3ccccc3)C2)cc1OC` (stereo not drawn) was 240 nM. The same measure for `COc1cc(C(=O)N2CCC(CCN3CCC(C(=O)c4nc5ccccc5n4CCOCc4ccco4)CC3)(c3ccccc3)C2)cc(OC)c1OC` (stereo not drawn): 447 nM; for `COc1cc(C(=O)N2CCC(CCN3CCC(C(=O)c4nc5ccccc5n4Cc4cccnc4)CC3)(c3ccccc3)C2)cc(OC)c1OC` (stereo not drawn): 417 nM; for `CCOCCn1c(C(=O)C2CCN(CCC3(c4ccc(OC)c(OC)c4)CCN(C(=O)c4cc(OC)c(OC)c(OC)c4)C3)CC2)nc2ccccc21` (stereo not drawn): 631 nM.

Consider `COc1cc(C(=O)N2CCC(CCN3CCC(C(=O)c4nc5ccccc5n4CCCC(=O)O)CC3)(c3ccc(Cl)c(Cl)c3)C2)cc(OC)c1OC` (stereo not drawn), for which the midpoint of inhibition, the IC50, lay at 10000 nM. The value for `COc1cc(C(=O)N2CCC(CCN3CCC(C(=O)c4nc5ccccc5n4Cc4ccccn4)CC3)(c3ccc(F)cc3)C2)cc(OC)c1OC` (stereo not drawn) was 562 nM; that for `COc1cc(C(=O)N2CCC(CCN3CCC(C(=O)c4nc5ccccc5n4Cc4ccco4)CC3)(c3ccccc3)C2)cc(OC)c1OC` (stereo not drawn) was 295 nM.

`COc1ccc(C2(CCN3CCC(C(=O)c4nc5ccccc5n4Cc4ccc(C(=O)O)cc4)CC3)CCN(C(=O)c3cc(OC)c(OC)c(OC)c3)C2)cc1OC` (stereo not drawn) had an IC50 of 27500 nM. The value for `CCOc1cc(C(=O)N2CCC(CCN3CCC(C(=O)c4nc5ccccc5n4Cc4ccc(F)cc4)CC3)(c3ccc(OC)c(OC)c3)C2)cc(OCC)c1OCC` (stereo not drawn) was 158 nM; that for `COc1cc(C(=O)N2CCC(CCN3CCC(C(=O)c4nc5ccccc5n4Cc4ccc(F)cc4)CC3)(c3ccc4c(c3)OCO4)C2)cc(OC)c1OC` (stereo not drawn) was 204 nM; that for `COc1cc(C(=O)N2CCC(CCN3CCC(C(=O)c4nc5ccccc5n4CCN4CCOCC4)CC3)(c3ccc(Cl)c(Cl)c3)C2)cc(OC)c1OC` (stereo not drawn) was 550 nM. The molecule `CCOCCn1c(C(=O)C2CCN(CCC3(c4ccc(F)cc4)CCN(Cc4cc(OC)c(OC)c(OC)c4)C3=O)CC2)nc2ccccc21` (stereo not drawn) had an IC50 of 251 nM.

Regarding `COc1ccc(CCN2CCC(=Nc3nc4ccccc4n3Cc3ccc(F)cc3)CC2)cc1`, the IC50 is 46.8 nM. The value for `COc1cc(C(=O)N2CCCC(CCN3CCC(C(=O)c4nc5ccccc5n4Cc4ccc(F)cc4)CC3)(c3ccc(Cl)c(Cl)c3)C2)cc(OC)c1OC` (stereo not drawn) was 214 nM; that for `COc1ccc(C(=O)N2CCC(CCN3CCC(C(=O)c4nc5ccccc5n4Cc4ccc(F)cc4)CC3)(c3ccc4c(c3)OCO4)C2)c(OC)c1OC` (stereo not drawn) was 257 nM. The value for `COc1cc(C(=O)N2CCC(CCN3CCC(C(=O)c4nc5ccccc5n4Cc4ccc(F)cc4)CC3)(c3ccccc3)C2)cc(OC)c1OC` (stereo not drawn) was 234 nM; that for `COc1ccc(CCN2CCC(C(=O)c3nc4ccccc4n3Cc3ccc(F)cc3)CC2)cc1` was 58.9 nM; that for `CC(C)Oc1cccc(CC(=O)N2CCC(CCN3CCC(C(=O)c4nc5ccccc5n4Cc4ccc(F)cc4)CC3)(c3ccc4c(c3)OCO4)C2)c1` (stereo not drawn) was 251 nM.

For `COc1cc(C(=O)N2CCC(CCN3CCC(C(=O)c4nc5ccccc5n4Cc4ccc(F)cc4)CC3)(c3ccc(Cl)c(Cl)c3)C2)cc(OC)c1OC` (stereo not drawn), the 50% inhibitory concentration (IC50) was 282 nM. The molecule `COc1ccc(C2(CCN3CCC(C(=O)c4nc5ccccc5n4Cc4ccccn4)CC3)CCN(C(=O)c3cc(OC)c(OC)c(OC)c3)C2)cc1` (stereo not drawn) had an IC50 of 501 nM. The same measure for `COc1cc(C(=O)N2CCC(CCN3CCC(C(=O)c4nc5ccccc5n4Cc4ccccn4)CC3)(c3ccc(Cl)c(Cl)c3)C2)cc(OC)c1OC` (stereo not drawn): 437 nM.

`COC(=O)c1ccc(Cn2c(C(=O)C3CCN(CCC4(c5ccccc5)CCN(C(=O)c5cc(OC)c(OC)c(OC)c5)C4)CC3)nc3ccccc32)cc1` (stereo not drawn) showed an IC50 of 1170 nM. The same measure for `COc1cc(C(=O)N2CCC(CCN3CCC(C(=O)c4nc5ccccc5[nH]4)CC3)(c3ccc(Cl)c(Cl)c3)C2)cc(OC)c1OC` (stereo not drawn): 407 nM.

Regarding `COc1cc(C(=O)N2CCC(CCN3CCC(C(=O)c4nc5ccccc5n4Cc4ccc(F)cc4)CC3)(c3ccc(F)cc3F)C2)cc(OC)c1OC` (stereo not drawn), it took 437 nM to reach half-maximal inhibition (IC50). The same measure for `COc1cc(C(=O)N2CCC(CCN3CCC(C(=O)c4nc5ccccc5[nH]4)CC3)(c3ccccc3)C2)cc(OC)c1OC` (stereo not drawn): 501 nM; for `COc1cc(C(=O)N2CCC(CCN3CCC(C(=O)c4nc5ccccc5n4Cc4ccncc4)CC3)(c3ccccc3)C2)cc(OC)c1OC` (stereo not drawn): 282 nM.

The molecule `COC(=O)c1ccc(Cn2c(C(=O)C3CCN(CCC4(c5ccc(OC)c(OC)c5)CCN(C(=O)c5cc(OC)c(OC)c(OC)c5)C4)CC3)nc3ccccc32)cc1` (stereo not drawn) gave an IC50 of 955 nM. The value for `COc1cc(C(=O)N2CCC(CCN3CCC(C(=O)c4nc5ccccc5n4Cc4ccc(C(=O)O)cc4)CC3)(c3ccccc3)C2)cc(OC)c1OC` (stereo not drawn) was 33900 nM; that for `O=C(c1nc2ccccc2n1Cc1ccc(F)cc1)C1CCN(CCC2(c3ccc4c(c3)OCO4)CCN(C(=O)c3ccc(Cl)cc3Cl)C2)CC1` (stereo not drawn) was 129 nM; that for `COc1ccc(C2(CCN3CCC(C(=O)c4nc5ccccc5[nH]4)CC3)CCN(C(=O)c3cc(OC)c(OC)c(OC)c3)C2)cc1OC` (stereo not drawn) was 1950 nM. The same measure for `CCOCCn1c(C(=O)C2CCN(CCC3(c4ccc(Cl)c(Cl)c4)CCN(C(=O)c4cc(OC)c(OC)c(OC)c4)C3)CC2)nc2ccccc21` (stereo not drawn): 339 nM; for `COc1ccc(C2(CCN3CCC(C(=O)c4nc5ccccc5n4Cc4ccc(F)cc4)CC3)CCN(C(=O)c3cc(OC)c(OC)c(OC)c3)C2)cc1OC` (stereo not drawn): 331 nM; for `COc1cc(C(=O)N2CCC(CCN3CCC(C(=O)c4nc5ccccc5n4CCCCOc4ccccc4C(=O)O)CC3)(c3ccccc3)C2)cc(OC)c1OC` (stereo not drawn): 9120 nM.
